Test results reported in patent publication US20200232974A1, “LYMPHOCYTES EXPRESSING CD73 IN CANCEROUS PATIENT DICTATES THERAPY” (Centre Léon-Bérard, priority 2016, published 2020).

Assays:
CD73+ Tconv = test: Co-culture of Treg with CD73+ or CD73neg Tconv, with or without exogenous ATP: proliferation (CTV dilution); assay type: cell-based, human; conditions: Treg:Tconv ratio 1/1; round-bottomed wells; anti-CD3/anti-CD28 beads
Source text: To analyze the biological impact of Ado generation by cooperation between CD39^+ Treg and CD73^+ Tconv, we co-cultured Treg labeled with proliferation marker CFSE in presence of CD73^+ or CD73^neg Tconv labeled with Cell Trace Violet (CTV) at a ratio 1/1 in presence or absence of exogenous ATP in round-bottomed wells with compact cell density in presence of anti-CD3/anti-CD28 beads. […] In contrast, CTV-labeled CD73^+ or CD73^neg proliferation that was not altered by the addition of Treg due to the strong activation. […] To mimic physiological conditions, Treg, CD73^+ and CD73^neg Tconv subsets were mixed together at physiological ratio (10%/20%/70%) observed in blood. ATP induced inhibition of the bulk proliferation which can be rescued by the combined addition of CD39 and CD73 inhibitors. The proliferation of each subset was analyzed by specific proliferation markers (CFSE and CTV alone or in combination).

CD73 = target: T1, CD73 (Homo sapiens, UniProt P21589); test: Hydrolysis of C13N15 AMP into Ado by CD73+ Tconv (HPLC); assay type: cell-based
T1 construct: endogenous in cells
T1 sequence (P21589 27-549): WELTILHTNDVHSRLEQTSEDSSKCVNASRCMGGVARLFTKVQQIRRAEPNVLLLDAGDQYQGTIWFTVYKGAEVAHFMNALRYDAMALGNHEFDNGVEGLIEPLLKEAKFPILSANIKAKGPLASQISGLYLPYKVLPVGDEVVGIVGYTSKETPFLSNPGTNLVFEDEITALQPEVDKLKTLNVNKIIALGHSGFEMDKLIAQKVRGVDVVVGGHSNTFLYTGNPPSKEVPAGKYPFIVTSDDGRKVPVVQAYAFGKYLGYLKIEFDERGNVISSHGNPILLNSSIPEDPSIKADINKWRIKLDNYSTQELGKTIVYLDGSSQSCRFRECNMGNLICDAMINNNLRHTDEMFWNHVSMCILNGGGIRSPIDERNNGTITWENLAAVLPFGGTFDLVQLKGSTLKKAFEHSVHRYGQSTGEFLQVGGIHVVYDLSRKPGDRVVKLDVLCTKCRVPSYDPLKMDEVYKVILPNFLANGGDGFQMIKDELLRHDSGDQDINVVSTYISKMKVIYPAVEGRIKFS
Procedure: To confirm this hypothesis, we quantified, by HPLC, the capacity of Treg to degrade ATP into Ado. To prevent interference with endogenous ATP or metabolites, these experiments were performed with exogenous C13N15 stable isotope ATP. After two hours, Treg purified from HD blood degraded 48.24±6.20% of ATP into AMP without generating neither Ado nor Inosine. […] Moreover, we confirmed that CD73^+ and CD73^neg Tconv were not able to degrade C13N15 ATP.
Using this technique, we confirmed the enzymatic functionality of CD73 on Tconv. Only CD73^+ Tconv were capable of hydrolyzing C13N15 AMP into Ado and this was reversed by addition of a specific CD73 inhibitor (AMPCP).

CD73+ or CD73neg Tconv [1] = test: 4 days' proliferation of purified CD73+ or CD73neg Tconv with anti-CD3/anti-CD28 beads; assay type: cell-based, human
Procedure: Addition of recombinant ADA (rhADA, 1 μg/ml), inducing degradation of Ado into Ino restored both T cell subsets proliferation confirming the immunosuppressive impact of Ado.

CD39 = target: T2, CD39 (Homo sapiens, UniProt P49961); test: Degradation of exogenous C13N15 ATP by purified Treg, quantified by HPLC; assay type: cell-based; conditions: Treg purified from HD blood, two hours
T2 construct: Treg purified from HD blood degraded 48.24±6.20% of ATP into AMP; endogenous in cells
T2 sequence (P49961 1-510): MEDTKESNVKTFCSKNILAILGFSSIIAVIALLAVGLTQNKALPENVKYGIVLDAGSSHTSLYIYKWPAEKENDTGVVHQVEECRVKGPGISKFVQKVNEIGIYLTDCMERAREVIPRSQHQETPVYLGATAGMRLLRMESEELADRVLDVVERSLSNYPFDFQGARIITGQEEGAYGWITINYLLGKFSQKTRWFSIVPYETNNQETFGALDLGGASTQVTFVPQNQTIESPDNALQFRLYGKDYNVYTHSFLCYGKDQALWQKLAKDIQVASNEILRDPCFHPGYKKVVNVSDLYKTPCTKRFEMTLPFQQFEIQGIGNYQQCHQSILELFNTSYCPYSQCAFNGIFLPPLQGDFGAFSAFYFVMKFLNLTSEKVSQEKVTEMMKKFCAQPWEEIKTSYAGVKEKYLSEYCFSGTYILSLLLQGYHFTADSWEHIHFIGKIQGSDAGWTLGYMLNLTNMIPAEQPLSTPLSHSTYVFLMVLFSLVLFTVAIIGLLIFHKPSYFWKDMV
Procedure: FIG. 3: Breast and ovarian tumors contain highly functional CD39+ Treg and CD73+ Tconv with Th1/17 characteristics. (A) Representative expression of CD39 and CD73 analyzed on memory CD4+ Treg and Tconv from Breast (B) and ovarian (OT) by flow cytometry. Frequency of CD39+ cells (B) and Δ CD39 MFI on these cells (C) among paired Treg and Tconv were analyzed by flow cytometry among BT and OT and statistical analysis was performed by Two-way Anova analysis. (D) Purified tumor-associated Treg were assessed for ATP (37.5 μM) degradation by HPLC measurements and compared to HD-blood Treg. In some conditions 30 min pre-incubation with ARL67156 (250 μM) was used to assess the role of CD39 functional activity. (E,F) Δ CD39 MFI of CD39+ cells among Treg (E) or Tconv (F) from paired peripheral blood and BT or OT were analyzed. Statistical analysis was performed by using Two-way Anova analysis. (G) Frequency of CD73+ cells among Tconv from BT and OT was analyzed by flow cytometry. Statistical analysis was performed by using Kruskal-Wallis test.
To confirm this hypothesis, we quantified, by HPLC, the capacity of Treg to degrade ATP into Ado. To prevent interference with endogenous ATP or metabolites, these experiments were performed with exogenous C13N15 stable isotope ATP. After two hours, Treg purified from HD blood degraded 48.24±6.20% of ATP into AMP without generating neither Ado nor Inosine. […]

CD73+ or CD73neg Tconv [2] = test: Cytokine secretion of purified Tconv subsets after 2 days of anti-CD3/anti-CD28 bead activation; assay type: cell-based, human; conditions: 2 days of activation; addition of Ado
Procedure: Moreover, the impact of Ado and AMP on cytokine secretion capacity was analyzed on both purified Tconv subsets. To avoid a confounding effect of Ado and AMP on proliferation in this analysis we analyzed cytokine secretion after 2 days of activation with anti-CD3/anti-CD28 beads which was determined as the maximal length of activation without induction of any proliferation (CFSE dilution). First, we confirmed that CD73^+ Tconv produced more IL-2, TNF-α, IFN-γ, IL-17A, IL-22, GM-CSF and IL-3 but less IL-10, IL-13 and IL-21 than CD73^neg in this activation setting. As shown previously for the proliferation, the secretion of the cytokines produced by CD73^+ or CD73^neg Tconv was inhibited by the addition of Ado.

MDR1 = target: T3, MDR1 (Homo sapiens, UniProt P08183); test: MDR1 functionality: Rhodamine 123 (Rhd123) efflux by flow cytometry; assay type: cell-based; conditions: HD-PBMC stained with Rhd123 (1 μg/ml); Elacridar 1 μM
T3 construct: After staining of HD-PBMC with Rhd123 we analyzed, by flow cytometry, cells endowed with Rhd123 efflux function; endogenous in cells
Procedure: (B, C) MDR1 functionality was assessed on CD73^+ and CD73^neg Tconv by their capacity to exclude Rhd123 (1 μg/ml) analyzed by flow cytometry. […] Frequency of Rhd123^neg cells was analyzed among CD73^+ (black) and CD73^neg (white) Tconv (D). Statistical analysis was performed by using Wilcoxon test.
Moreover, we took advantage of the physiological role of MDR1 in the efflux of specific fluorescent substrate like Rhodamine 123 (Rhd123). After staining of HD-PBMC with Rhd123 we analyzed, by flow cytometry, cells endowed with Rhd123 efflux function.

[3] = tested on: PBMC-purified memory CD4+ Tconv; test: in vitro; conditions: 48 h
Procedure: (§1) Memory CD4^+ Tconv purified from healthy donor PBMC were used. Purified 10^5 CD4^+ Tconv were cultured in 96-round bottomed wells in complete RPMI medium for 48 h in presence of a strong TCR stimulation (expand beads, ratio bead:cell 1:8)+IL-2 (50UI/ml) in absence (medium condition) or in presence of graded doses of Taxol (0.01; 0.1; 1 μM). Viability was analyzed by multiparametric flow cytometry on different cell subsets according to their expression of CD73 and MDR1 (CD73 MDR1, CD73^+MDR1^neg, CD73^negMDR1^+, CD73^negMDR1^neg). Survival was analyzed by multiparametric flow cytometry using Annexin-V and DAPI stainings (both from Becton Dickinson) according to CD73 and MDR1 expression. % of viable cells (Annexin V^neg DAPI^neg) was compared according to the cell subset analyzed.
(§2) Their survival was analyzed by multiparametric flow cytometry using with Annexin-V and DAPI stainings (both from Becton Dickinson) according to CD73 and MDR1 expression. The percentage of viable cells (Annexin V^neg DAPI^neg) was compared according to the cell subset analyzed.

in vitro = conditions: human
Procedure: as §1, §2

[4] = tested on: CD73 and TIGIT expression on CD4+ and CD8+ T cells; test: Blood immune-monitoring of metastatic melanoma patients during anti-PD1 treatment (multiparametric flow cytometry); assay type: in vivo, human
Procedure: 2nd line metastatic melanoma patients treated with anti PD-1 (Nivolumab, 3 mg/kg/i.v, every 2 weeks) were subjected to blood immune-monitoring, by multiparametric flow cytometry analysis, to assess, using specific coupled mAbs against CD73 (APC) and TIGIT (PE), the modulation of expression of both ICP on CD4+ and CD8+ T cells before (inclusion, WO) and during treatment (W2, W12).

T3 sequence (P08183 whole entry): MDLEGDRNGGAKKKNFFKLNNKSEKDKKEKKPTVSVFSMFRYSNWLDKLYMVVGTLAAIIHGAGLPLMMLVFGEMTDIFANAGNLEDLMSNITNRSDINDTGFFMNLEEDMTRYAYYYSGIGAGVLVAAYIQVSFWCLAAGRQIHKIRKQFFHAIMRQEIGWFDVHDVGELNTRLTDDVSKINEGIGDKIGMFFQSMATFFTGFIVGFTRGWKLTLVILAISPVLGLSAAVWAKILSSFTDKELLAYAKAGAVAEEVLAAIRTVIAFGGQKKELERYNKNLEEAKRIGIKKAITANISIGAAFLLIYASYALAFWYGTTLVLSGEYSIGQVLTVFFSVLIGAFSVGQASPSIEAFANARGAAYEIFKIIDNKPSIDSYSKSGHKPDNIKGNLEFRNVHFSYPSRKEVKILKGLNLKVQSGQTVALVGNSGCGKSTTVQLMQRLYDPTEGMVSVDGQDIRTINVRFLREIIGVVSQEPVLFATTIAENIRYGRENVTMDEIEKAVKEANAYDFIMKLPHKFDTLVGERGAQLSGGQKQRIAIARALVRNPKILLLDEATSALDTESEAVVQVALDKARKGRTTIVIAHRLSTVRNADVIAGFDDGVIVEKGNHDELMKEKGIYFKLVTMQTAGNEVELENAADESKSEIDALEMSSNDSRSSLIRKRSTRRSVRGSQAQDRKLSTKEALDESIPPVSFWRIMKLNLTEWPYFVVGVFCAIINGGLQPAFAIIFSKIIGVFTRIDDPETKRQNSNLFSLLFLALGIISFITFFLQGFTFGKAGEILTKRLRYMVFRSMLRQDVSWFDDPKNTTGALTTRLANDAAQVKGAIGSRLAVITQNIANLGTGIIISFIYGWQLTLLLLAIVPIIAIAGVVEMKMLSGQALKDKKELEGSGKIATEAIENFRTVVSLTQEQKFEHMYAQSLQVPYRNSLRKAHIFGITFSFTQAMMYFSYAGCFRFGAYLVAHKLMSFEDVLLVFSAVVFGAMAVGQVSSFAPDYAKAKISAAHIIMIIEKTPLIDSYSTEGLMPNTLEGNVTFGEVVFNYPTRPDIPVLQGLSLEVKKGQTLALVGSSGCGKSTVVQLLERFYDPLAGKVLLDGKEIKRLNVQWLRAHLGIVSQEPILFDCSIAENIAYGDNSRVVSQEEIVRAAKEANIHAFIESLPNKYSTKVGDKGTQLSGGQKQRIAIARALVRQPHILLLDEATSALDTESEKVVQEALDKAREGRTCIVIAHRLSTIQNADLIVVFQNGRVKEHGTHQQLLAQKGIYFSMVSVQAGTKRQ

Nc1ncnc2c1ncn2[C@@H]1O[C@H](COP(=O)(O)CP(=O)(O)O)[C@@H](O)[C@H]1O [AMPCP]
effect on inhibition of CD73+ Tconv proliferation induced by Treg and ATP (CD73+ Tconv): reversed | effect on hydrolysis of C13N15 AMP into Ado by CD73+ Tconv (CD73): reversed | effect on AMP-induced inhibition of CD73+ Tconv proliferation (CD73+ or CD73neg Tconv [1]; added with AMP (150 μM final concentration)): reversion of inhibition

Nc1ncnc2c1ncn2[C@@H]1O[C@H](COP(=O)(O)O)[C@@H](O)[C@H]1O [AMP]
effect on proliferation of CD73+ Tconv (CD73+ or CD73neg Tconv [1]; metronomic addition, 150 μM final concentration, 4 days): inhibited

CCN(CC)c1ncnc2c1ncn2[C@@H]1O[C@H](COP(=O)(O)OP(=O)(O)C(Br)(Br)P(=O)(O)O)[C@@H](O)[C@H]1O [ARL67156]
effect on degradation of ATP into AMP by Treg (CD39): completely inhibited

Nc1ncnc2c1ncn2[C@@H]1O[C@H](CO)[C@@H](O)[C@H]1O [Ado, adenosine]
effect on IL-17A secretion by Tconv CD73+ (or CD73neg) (CD73+ or CD73neg Tconv [2]): not altered | effect on IL-22 secretion (CD73+ or CD73neg Tconv [2]): slightly inhibited | effect on secretion of the cytokines produced by CD73+ or CD73neg Tconv (CD73+ or CD73neg Tconv [2]): inhibited | effect on proliferation of both subsets (CD73+ and CD73neg Tconv) (CD73+ or CD73neg Tconv [1]; metronomic addition 75 μM/day, 300 μM final concentration, 4 days): inhibited

COc1cc2c(cc1OC)CN(CCc1ccc(NC(=O)c3cccc4c(=O)c5cccc(OC)c5[nH]c34)cc1)CC2 [Elacridar]
effect on Rhd123 efflux by Tconv (MDR1): completely abrogated

CC(=O)O[C@H]1C(=O)[C@@]2(C)[C@H]([C@H](OC(=O)c3ccccc3)[C@]3(O)C[C@H](OC(=O)[C@H](O)[C@@H](NC(=O)c4ccccc4)c4ccccc4)C(C)=C1C3(C)C)[C@]1(OC(C)=O)CO[C@@H]1C[C@@H]2O [Taxol]
sensitivity to Taxol-induced apoptosis ([3]; CD73+MDR1neg subset, high Taxol doses): sensitive to apoptosis | sensitivity to Taxol-induced apoptosis ([3]; CD73negMDR1neg population): highly sensitive | viability at 48 h, 1 µM (in vitro): 80%

Nivolumab: anti PD-1 antibody given to metastatic melanoma patients
modulation of CD73 expression on CD4+ or CD8+ T cells ([4]; 11 patients, 3 mg/kg i.v. every 2 weeks, before (W0) and during treatment (W2, W12)): No significant modulation | modulation of TIGIT expression ([4]; between W0 and W2, representative dot plot): increased

B1: rhADA: recombinant Adenosine Deaminase, inducing degradation of Ado into Ino (protein, UniProt P00813 2-363, looked up)
Adenosine deaminase: AQTPAFDKPKVELHVHLDGSIKPETILYYGRRRGIALPANTAEGLLNVIGMDKPLTLPDFLAKFDYYMPAIAGCREAIKRIAYEFVEMKAKEGVVYVEVRYSPHLLANSKVEPIPWNQAEGDLTPDEVVALVGQGLQEGERDFGVKARSILCCMRHQPNWSPKVVELCKKYQQQTVVAIDLAGDETIPGSSLLPGHVQAYQEAVKSGIHRTVHAGEVGSAEVVKEAVDILKTERLGHGYHTLEDQALYNRLRQENMHFEICPWSSYLTGAWKPDTEHAVIRLKNDQANYSLNTDDPLIFKSTLDTDYQMTKRDMGFTEEEFKRLNINAAKSSFLPEDEKRELLDLLYKAYGMPPSASAGQNL
effect on Ado-inhibited proliferation of both T cell subsets (CD73+ or CD73neg Tconv [1]; rhADA 1 μg/ml added with exogenous Ado): restored
